Each structure is given as a SMILES string.

Data set [1] can be described thus: Mouse pharmacokinetic assay. As to conditions: mouse, po; mice, i.g., 10 mg/kg, plasma; read-out: AUC. The data set is classed as in vivo, ICR mice. The protocol:
Experimental objective: In this experiment, a single dose of test compounds was administered to ICR mice intravenously and intragastrically, the concentrations of the test compounds in the plasma of mice were measured, and the pharmacokinetic characteristics and bioavailability of the test compounds in mice were evaluated.
Experimental animals: male ICR mice, 20-35 g, purchased from Chengdu Dossy Experimental Animals Co., Ltd.
Experimental method: On the day of the experiment, the ICR mice were randomly grouped according to their body weight. The animals were fasted but with water available overnight before the administration, and fed 4 h after the administration.
Sampling: Blood was taken from the orbits at specified time points, and placed in an EDTAK2 centrifuge tube. The tube was centrifuged at 5000 rpm for 10 min, and the plasma was collected.
Time points for plasma collection in G1 group: 0, 5 min, 15 min, 30 min, 1 h, 2 h, 4 h, 7 h, and 24 h.
Time points for plasma collection in G2 group: 0, 5 min, 15 min, 30 min, 1 h, 2 h, 4 h, 7 h, and 24 h.
Before analysis and detection, all the samples were stored at -60°C or lower. The samples were analyzed quantitatively by LC-MS/MS. Table 3-1 PK data of test compound (i.e., drug) in mice

The nature of data set [2]: Stability test in rat liver microsomes. It counts as in vitro ADME. The settings on record: rat, microsomes, rat liver microsomes 0.5 mg/mL, 1 µM compound, NADPH regeneration system, 37°C. As to the method: At 37°C, 1 µM of the test compound was incubated with rat liver microsomes (0.5 mg/mL) supplemented with an NADPH regeneration system for 5, 10, 20, 30 and 60 minutes, and then the LC-MS/MS method was used to detect the concentration of the test compound in the resulting sample. The half-life (T1/2) and intrinsic clearance (CLint(mic)) of the compound in rat liver microsome solution were obtained by calculating the remaining percentage of the compound at the corresponding time points.

Data set [3] in a line: Rat pharmacokinetic assay. It counts as in vivo, SD rats. As to conditions: rat, po; rats, i.g., 10 mg/kg, plasma; read-out: AUC. As to the method:
Experimental animals: male SD rats, 180-200 g, purchased from Chengdu Dossy Experimental Animals Co., Ltd.
Experimental design: On the day of the experiment, the SD rats were randomly grouped according to their body weight. The animals were fasted but with water available overnight before the administration, and fed 4 h after the administration.
Blood was taken from the orbits at specified time points, and placed in an EDTAK2 centrifuge tube. The tube was centrifuged at 5000 rpm for 10 min, and the plasma was collected.
Blood sampling time points for the intravenous administration group: 0, 5 min, 15 min, 30 min, 1 h, 2 h, 4 h, 7 h and 24 h; blood sampling time points for the intragastric administration group: 0, 5 min, 15 min, 30 min, 1 h, 2 h, 4 h, 7 h and 24 h. Before analysis and detection, all the samples were stored at -60°C or lower. The samples were analyzed quantitatively by LC-MS/MS. Table 4-1 PK data of test compound (i.e., drug) in rats

Data set [4] has as its target T1, soluble guanylate cyclase (sGC) (Homo sapiens, UniProt Q02108+Q02153).
T1 construct: purchased ICE S2304F-H07SH2
T1 sequence (Q02153 1-619): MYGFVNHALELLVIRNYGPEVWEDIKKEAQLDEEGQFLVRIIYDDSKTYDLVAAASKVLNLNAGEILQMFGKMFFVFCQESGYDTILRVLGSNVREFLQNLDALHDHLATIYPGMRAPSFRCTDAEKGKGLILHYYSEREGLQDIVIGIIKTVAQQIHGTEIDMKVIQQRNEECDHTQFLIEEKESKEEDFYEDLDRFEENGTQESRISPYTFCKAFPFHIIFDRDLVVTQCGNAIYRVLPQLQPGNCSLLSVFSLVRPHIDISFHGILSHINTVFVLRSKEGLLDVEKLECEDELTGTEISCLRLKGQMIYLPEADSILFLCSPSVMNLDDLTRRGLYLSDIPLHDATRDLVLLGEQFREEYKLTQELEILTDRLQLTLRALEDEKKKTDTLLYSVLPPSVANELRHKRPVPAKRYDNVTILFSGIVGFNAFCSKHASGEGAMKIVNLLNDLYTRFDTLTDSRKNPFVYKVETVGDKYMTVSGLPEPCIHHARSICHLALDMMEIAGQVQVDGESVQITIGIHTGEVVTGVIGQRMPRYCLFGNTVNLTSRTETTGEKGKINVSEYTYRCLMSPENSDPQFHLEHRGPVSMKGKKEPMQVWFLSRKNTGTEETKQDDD
T1 sequence (Q02108 1-690): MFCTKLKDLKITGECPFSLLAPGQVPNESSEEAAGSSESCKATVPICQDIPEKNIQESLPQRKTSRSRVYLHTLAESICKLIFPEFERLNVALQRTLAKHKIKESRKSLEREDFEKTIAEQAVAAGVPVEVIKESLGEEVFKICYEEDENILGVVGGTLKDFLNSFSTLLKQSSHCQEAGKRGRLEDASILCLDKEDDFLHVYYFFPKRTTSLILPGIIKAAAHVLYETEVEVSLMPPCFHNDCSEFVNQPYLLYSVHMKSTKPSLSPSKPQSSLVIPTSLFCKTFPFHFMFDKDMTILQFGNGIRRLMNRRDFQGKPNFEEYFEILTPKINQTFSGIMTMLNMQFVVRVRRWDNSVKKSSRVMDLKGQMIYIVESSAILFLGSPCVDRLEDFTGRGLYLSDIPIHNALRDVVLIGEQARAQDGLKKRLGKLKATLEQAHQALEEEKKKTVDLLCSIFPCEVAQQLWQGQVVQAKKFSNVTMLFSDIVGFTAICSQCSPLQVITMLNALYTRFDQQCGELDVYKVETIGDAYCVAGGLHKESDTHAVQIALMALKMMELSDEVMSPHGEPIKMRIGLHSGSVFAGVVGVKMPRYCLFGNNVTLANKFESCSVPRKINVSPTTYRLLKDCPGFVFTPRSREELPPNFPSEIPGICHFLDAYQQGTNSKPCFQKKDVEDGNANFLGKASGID
Briefly: In vitro detection experiment for soluble guanylate cyclase (sGC) activity (TR-FRET cGMP). The settings on record: enzymatic agonism and/or activation of sGC; 1.5 nM sGC, 5 µM GTP, 100 µM DETA NONOate. It counts as biochemical. The protocol: First, 100 nL of the compounds at different concentrations were transferred to a 384-well reaction plate (Greiner, Cat. No. 784075) using Echo 655 (LABCYTE, Cat # 655), with the final DMSO concentration of 1% in the reaction mixture; 2 µL of sGC (ICE, Cat. No. S2304F-H07SH2) was added to the 384-well reaction plate, and the mixture was centrifuged at 1000 rpm for 1 min; and then 1 µL of DETA NONOate was added, and the mixture was incubated at 37°C for 10 min. After the incubation was completed, 2 µL of GTP was added, and the mixture was centrifuged at 1000 rpm for 1 min and reacted at 37°C for 60 min. In the reaction system, the final concentrations of sGC, GTP, and DETA NONOate were 1.5 nM, 5 µM, and 100 µM, respectively. After the reaction was completed, 5 µL of the test mixture (PerkinElmer, Cat. No. 62GM2PEG) was added, and the mixture was incubated at room temperature for 60 min. The TR-FRET signal (Ratio: 665/620 nm) was read using a microplate reader (BMG, Cat. No. PHERAstar FSX). A nonlinear regression curve was fitted using GraphPad Prism software, and EC50 values were calculated. Compound A (Example 1 in WO 2010065275) was used as a positive reference compound. The activation rate was calculated according to Equation 2-1, where Low control represents the TR-FRET signal value of 1 µM compound A, and High control represents the TR-FRET signal value in the DMSO well. Stimulation% = (aveHighcontrol−cpdwell)/(ave High control−ave Low; control)*100% [formula] Table 2-1 Results of enzymatic agonism and/or activation of test compounds on soluble guanylate cyclase (sGC).

For `CC(C)CN1CCN2c3ccc(-c4ccc(Cl)cc4N4CCC[C@H](n5ncc(C(=O)O)c5C(F)F)C4)cc3CCC2C1` (single isomer, unassigned) [Compound 8-2], the AUC in data set [1] and in data set [3] was over 10000 ng·h/mL throughout. In data set [2], this compound had a half-life at 1 µM of 1.63 h. Also, in data set [2] (read-out: CLint(mic)), the microsomal CLint at 1 µM came to 14.1 µL/min/mg. In data set [4], the EC50 was under 0.02 µM.

(Values after EP4786461A1, “PYRAZOLE CARBOXYLIC ACID DERIVATIVE AND USE THEREOF IN MEDICINE” (Haisco Pharmaceutical Group Co., Ltd., priority 2023, dated 2025).)
